In BindingDB's records for doi:10.1021/jm00073a015 (Institute, 1993) one finds IC50 data, which are given here for eight compounds.

In general, pIC50 refers to −log10 of the IC50, conventionally taken in molar units. Low readings indicate a large IC50, high ones a small IC50.

SMILES strings stand for the structures. pIC50: −log10 of the molar value.

The nature of assay [1]: Binding affinity against kappa opioid receptor from calf frontal cortex.
Assay [2] can be described thus: Binding affinity against delta opioid receptor from calf frontal cortex.
In a further assay the target is Mu-type opioid receptor (Bos taurus, UniProt P79350). Description: ChEBML_136067. An excerpt: Binding affinity against mu opioid receptor from calf frontal cortex.
Sequence of Mu-type opioid receptor (P79350 whole entry): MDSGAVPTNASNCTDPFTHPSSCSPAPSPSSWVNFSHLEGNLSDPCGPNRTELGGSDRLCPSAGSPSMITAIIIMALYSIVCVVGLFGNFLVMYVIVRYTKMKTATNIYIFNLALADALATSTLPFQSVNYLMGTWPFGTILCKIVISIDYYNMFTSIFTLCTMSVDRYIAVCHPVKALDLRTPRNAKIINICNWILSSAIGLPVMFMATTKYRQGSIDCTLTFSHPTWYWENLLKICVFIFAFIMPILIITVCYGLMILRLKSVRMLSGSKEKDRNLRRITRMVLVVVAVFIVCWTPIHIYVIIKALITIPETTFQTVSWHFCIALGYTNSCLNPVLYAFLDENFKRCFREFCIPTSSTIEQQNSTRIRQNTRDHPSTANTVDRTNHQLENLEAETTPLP

For `CN1CC[C@]23c4c5ccc(O)c4O[C@H]2C(=O)CC[C@@]3(NC(=O)/C=C/c2ccc([N+](=O)[O-])cc2)[C@H]1C5`, the results for the negative-log IC50 (pIC50) in assay [1] and in assay [2] were 8.18 and 8.46, respectively.
Compound `C[C@@]12Oc3c(O)ccc4c3C13CCN(CC1CC1)C(C4)[C@]3(NC(=O)CCc1ccc([N+](=O)[O-])cc1)CCC2=O` (stereo partly drawn) [1N-[4-cyclopropylmethyl-10-hydroxy-13-methyl-14-oxo-(13R,17S)-12-oxa-4-azapentacyclo[9.6.1.01,13.05,17.07,18]octadeca-7(18),8,10-trien-17-yl]-3-(4-nitrophenyl)propanamide] had a pIC50 in assay [1] of 6.79.
For the compound `C[C@@]12Oc3c(O)ccc4c3C13CCN(CC1CC1)C(C4)[C@]3(NC(=O)/C=C/c1ccc([N+](=O)[O-])cc1)CCC2=O` (stereo partly drawn) [1N-[4-cyclopropylmethyl-10-hydroxy-13-methyl-14-oxo-(13R,17S)-12-oxa-4-azapentacyclo[9.6.1.01,13.05,17.07,18]octadeca-7(18),8,10-trien-17-yl]-4-(4-nitrophenyl)-(Z)-2-butenamide], the pIC50 in assay [1] was 6.90; in assay [2], 7.96.
For `O=C(C=Cc1ccc([N+](=O)[O-])cc1)N[C@@]12C=CC(=O)[C@@H]3Oc4c(O)ccc5c4C31CCN(CC1CC1)C2C5` (stereo partly drawn) [1N-[4-cyclopropylmethyl-10-hydroxy-14-oxo-(13R,17S)-12-oxa-4-azapentacyclo[9.6.1.01,13.05,17.07,18]octadeca-7(18),8,10,15-tetraen-17-yl]-4-(4-nitrophenyl)-(Z)-2-butenamide], in that order: 7.96 and 6.97.
For `O=C(/C=C/c1ccc([N+](=O)[O-])cc1)N[C@@]12CCC(=O)[C@@H]3Oc4c(O)ccc5c4[C@@]31CCN(CC1CC1)[C@@H]2C5` [1N-[4-cyclopropylmethyl-10-hydroxy-14-oxo-(13R,17S)-12-oxa-4-azapentacyclo[9.6.1.01,13.05,17.07,18]octadeca-7(18),8,10-trien-17-yl]-4-(4-nitrophenyl)-(Z)-2-butenamide], in that order: 7.92 and 7.68.
Regarding `COc1ccc2c3c1O[C@H]1C(=O)C=C[C@@]4(NC(=O)C=Cc5ccc([N+](=O)[O-])cc5)C(C2)N(CC2CC2)CCC314` (stereo partly drawn) [1N-[4-cyclopropylmethyl-10-methoxy-14-oxo-(13R,17S)-12-oxa-4-azapentacyclo[9.6.1.01,13.05,17.07,18]octadeca-7(18),8,10,15-tetraen-17-yl]-4-(4-nitrophenyl)-(Z)-2-butenamide], the figures for the pIC50 (in assay [1]; in assay [2]; against Mu-type opioid receptor) were 8.30, 7.27 and 8.82, respectively.
`CN1CCC23c4c5ccc(O)c4O[C@@]2(C)C(=O)CC[C@@]3(NC(=O)/C=C/c2ccc([N+](=O)[O-])cc2)C1C5` (stereo partly drawn) [1N-[10-hydroxy-4,13-dimethyl-14-oxo-(13R,17S)-12-oxa-4-azapentacyclo[9.6.1.01,13.05,17.07,18]octadeca-7(18),8,10-trien-17-yl]-4-(4-nitrophenyl)-(Z)-2-butenamide]: the pIC50 is 6.94 in assay [1] and 7.29 in assay [2].
In the same order, the values of `COc1ccc2c3c1O[C@H]1C(=O)C=C[C@@]4(NC(=O)C=Cc5ccc([N+](=O)[O-])cc5)C(C2)N(C)CCC314` (stereo partly drawn) [1N-[10-methoxy-4-methyl-14-oxo-(13R,17S)-12-oxa-4-azapentacyclo[9.6.1.01,13.05,17.07,18]octadeca-7(18),8,10,15-tetraen-17-yl]-4-(4-nitrophenyl)-(Z)-2-butenamide] are 7.17 and 7.34.
